Patent US5444057A, “Carbapenem-antibiotic compounds” (Zeneca Limited, priority 1992, dated 1995)
Converted amounts (≈) assume the structure as drawn.

How the values were obtained:
[1] = system: Enterobacter cloacae P99-; test: MIC by agar dilution, Enterobacter cloacae P99-; assay type: cell-based
Description: (§1) The antibacterial activity is described in terms of the minimum inhibitory concentration (MIC) determined by the agar-dilution technique with an inoculum size of 10^4 CFU/spot.

B. fragilis AMP S = test: MIC by agar dilution, B. fragilis AMP S; assay type: cell-based; conditions: Bacteroides fragilis, Diagnostic Sensitivity Test, inoculum 10^4 CFU/spot
Description: as §1

S. aureus Oxford = test: MIC by agar dilution, S. aureus Oxford; assay type: cell-based; conditions: Staphylococcus aureus, Diagnostic Sensitivity Test, inoculum 10^4 CFU/spot
Description: as §1

E. coli DCO = test: MIC by agar dilution, E. coli DCO; assay type: cell-based; conditions: Escherichia coli, Diagnostic Sensitivity Test, inoculum 10^4 CFU/spot
Description: as §1

P. morganii I + 001 = test: MIC by agar dilution, P. morganii I + 001; assay type: cell-based; conditions: Morganella morganii, Diagnostic Sensitivity Test, inoculum 10^4 CFU/spot
Description: as §1

bacteria = conditions: cited from earlier work

Row | Compound | MIC [1] | MIC (B. fragilis AMP S) | MIC (S. aureus Oxford) | MIC (E. coli DCO) | MIC (P. morganii I + 001) | antibacterial activity (bacteria)
1 | C[C@@H](O)[C@H]1C(=O)N2C(C(=O)O)=C(S[C@@H]3CN[C@H](C(=O)Nc4ccc(C(=O)O)cn4)C3)[C@H](C)[C@H]12 [Example 4, (1R,5R,6S,8S,2'S,4'S)-2-(2-(5-Carboxy-2-pyridylcarbamoyl)pyrrolidin-4-ylthio)-6-(1-hydroxyethyl)-1-methylcarbapenem-3-carboxylic acid] | 0.02 µg/mL (≈ 0.042 µM) | 0.25 µg/mL (≈ 0.525 µM) | 0.13 µg/mL (≈ 0.273 µM) | 0.02 µg/mL (≈ 0.042 µM) | 0.02 µg/mL | –
2 | C[C@@H](O)[C@H]1C(=O)N2C(C(=O)O)=C(SCCN=CN)C[C@H]12 [imipenem, N-formimidoyl thienamycin] | – | – | – | – | – | broad spectrum of antibacterial activity
